Results reported in ChEMBL document CHEMBL5723584 (2023).

How the values were obtained:
Conditions in all cases: Compound concentration 1.0 uM
[1] = molecular target: cAMP-dependent protein kinase catalytic subunit beta (Homo sapiens) (UniProt P22694); assay: activity of PKACbeta(h) at 1.0 µM in the Eurofins Kinase panel
[2] = molecular target: Interferon-induced, double-stranded RNA-activated protein kinase (Homo sapiens) (UniProt P19525); assay: activity of PKR(h) at 1.0 µM in the Eurofins Kinase panel
[3] = molecular target: LIM domain kinase 1 (Homo sapiens) (UniProt P53667); assay: activity of LIMK1(h) at 1.0 µM in the Eurofins Kinase panel
[4] = molecular target: Receptor-type tyrosine-protein kinase FLT3 (Homo sapiens) (UniProt P36888); assay: activity of Flt3(h) at 1.0 µM in the Eurofins Kinase panel
[5] = molecular target: Proto-oncogene tyrosine-protein kinase ROS (Homo sapiens) (UniProt P08922); assay: activity of Ros(h) at 1.0 µM in the Eurofins Kinase panel
[6] = molecular target: CDK4/Cyclin D3 (Homo sapiens) (UniProt P11802+P30281); assay: activity of CDK4/cyclinD3(h) at 1.0 µM in the Eurofins Kinase panel; format: protein-complex assay
[7] = molecular target: Ribosomal protein S6 kinase alpha-5 (Homo sapiens) (UniProt O75582); assay: activity of MSK1(h) at 1.0 µM in the Eurofins Kinase panel
[8] = molecular target: Phosphorylase b kinase gamma catalytic chain, testis/liver isoform (Homo sapiens) (UniProt P15735); assay: activity of PhKgamma2(h) at 1.0 µM in the Eurofins Kinase panel
[9] = molecular target: Serine/threonine-protein kinase pim-1 (Homo sapiens) (UniProt P11309); assay: activity of Pim-1(h) at 1.0 µM in the Eurofins Kinase panel
[10] = molecular target: Serine/threonine-protein kinase Nek2 (Homo sapiens) (UniProt P51955); assay: activity of NEK2(h) at 1.0 µM in the Eurofins Kinase panel
[11] = molecular target: cGMP-dependent protein kinase 2 (Homo sapiens) (UniProt Q13237); assay: activity of PRKG2(h) at 1.0 µM in the Eurofins Kinase panel
[12] = molecular target: Calcium/calmodulin-dependent protein kinase type II subunit alpha (Homo sapiens) (UniProt Q9UQM7); assay: activity of CaMKIIalpha(h) at 1.0 µM in the Eurofins Kinase panel
[13] = molecular target: Calcium/calmodulin-dependent protein kinase type 1 (Homo sapiens) (UniProt Q14012); assay: activity of CaMKI(h) at 1.0 µM in the Eurofins Kinase panel
[14] = molecular target: Serine/threonine-protein kinase 32B (Homo sapiens) (UniProt Q9NY57); assay: activity of STK32B(h) at 1.0 µM in the Eurofins Kinase panel
[15] = molecular target: 5'-AMP-activated protein kinase catalytic subunit alpha-1 (Homo sapiens) (UniProt Q13131); assay: activity of AMPKalpha1(h) at 1.0 µM in the Eurofins Kinase panel
[16] = molecular target: Angiopoietin-1 receptor (Homo sapiens) (UniProt Q02763); assay: activity of Tie2(h) at 1.0 µM in the Eurofins Kinase panel
[17] = molecular target: Serine/threonine-protein kinase LATS2 (Homo sapiens) (UniProt Q9NRM7); assay: activity of LATS2(h) at 1.0 µM in the Eurofins Kinase panel
[18] = molecular target: Dual specificity mitogen-activated protein kinase kinase 6 (Homo sapiens) (UniProt P52564); assay: activity of MKK6(h) at 1.0 µM in the Eurofins Kinase panel
[19] = molecular target: Vascular endothelial growth factor receptor 2 (Homo sapiens) (UniProt P35968); assay: activity of KDR(h) at 1.0 µM in the Eurofins Kinase panel
[20] = molecular target: Serine/threonine-protein kinase DCLK1 (Homo sapiens) (UniProt O15075); assay: activity of DCAMKL1(h) at 1.0 µM in the Eurofins Kinase panel
[21] = molecular target: SRSF protein kinase 1 (Homo sapiens) (UniProt Q96SB4); assay: activity of SRPK1(h) at 1.0 µM in the Eurofins Kinase panel
[22] = molecular target: Serine/threonine-protein kinase B-raf (Homo sapiens) (UniProt P15056); assay: activity of B-Raf(h) at 1.0 µM in the Eurofins Kinase panel
[23] = molecular target: Serine/threonine-protein kinase PLK2 (Homo sapiens) (UniProt Q9NYY3); assay: activity of Snk(h) at 1.0 µM in the Eurofins Kinase panel
[24] = molecular target: Discoidin domain-containing receptor 2 (Homo sapiens) (UniProt Q16832); assay: activity of DDR2(h) at 1.0 µM in the Eurofins Kinase panel
[25] = molecular target: Aurora kinase A (Homo sapiens) (UniProt O14965); assay: activity of Aurora-A(h) at 1.0 µM in the Eurofins Kinase panel
[26] = molecular target: Dual specificity protein kinase TTK (Homo sapiens) (UniProt P33981); assay: activity of TTK(h) at 1.0 µM in the Eurofins Kinase panel
[27] = molecular target: Serine/threonine-protein kinase Nek6 (Homo sapiens) (UniProt Q9HC98); assay: activity of NEK6(h) at 1.0 µM in the Eurofins Kinase panel
[28] = molecular target: Mast/stem cell growth factor receptor Kit (Homo sapiens) (UniProt P10721); assay: activity of cKit(h) at 1.0 µM in the Eurofins Kinase panel
[29] = molecular target: Mitogen-activated protein kinase 14 (Homo sapiens) (UniProt Q16539); assay: activity of SAPK2a(h) at 1.0 µM in the Eurofins Kinase panel
[30] = molecular target: CDK9/cyclin T1 (Homo sapiens) (UniProt O60563+P50750); assay: activity of CDK9/cyclin T1(h) at 1.0 µM in the Eurofins Kinase panel; format: protein-complex assay
[31] = molecular target: Cyclin-dependent kinase 14/Cyclin-Y (Homo sapiens) (UniProt O94921+Q8ND76); assay: activity of CDK14/cyclinY(h) at 1.0 µM in the Eurofins Kinase panel; format: protein-complex assay
[32] = molecular target: Interleukin-1 receptor-associated kinase 1 (Homo sapiens) (UniProt P51617); assay: activity of IRAK1(h) at 1.0 µM in the Eurofins Kinase panel
[33] = molecular target: Rho-associated protein kinase 1 (Homo sapiens) (UniProt Q13464); assay: activity of ROCK-I(h) at 1.0 µM in the Eurofins Kinase panel
[34] = molecular target: Platelet-derived growth factor receptor alpha (Homo sapiens) (UniProt P16234); assay: activity of PDGFRalpha(h) at 1.0 µM in the Eurofins Kinase panel
[35] = molecular target: Serine/threonine-protein kinase MRCK gamma (Homo sapiens) (UniProt Q6DT37); assay: activity of MRCKgamma(h) at 1.0 µM in the Eurofins Kinase panel
[36] = molecular target: Eukaryotic translation initiation factor 2-alpha kinase 3 (Homo sapiens) (UniProt Q9NZJ5); assay: activity of PEK(h) at 1.0 µM in the Eurofins Kinase panel
[37] = molecular target: CDK7/Cyclin H/MNAT1 (Homo sapiens) (UniProt P51946+P50613+P51948); assay: activity of CDK7/cyclinH/MAT1(h) at 1.0 µM in the Eurofins Kinase panel; format: protein-complex assay
[38] = molecular target: CDK18/Cyclin Y (Homo sapiens) (UniProt Q07002+Q8ND76); assay: activity of CDK18/cyclinY(h) at 1.0 µM in the Eurofins Kinase panel; format: protein-complex assay

Sequence of Rho-associated protein kinase 1 (Homo sapiens) (Q13464 2-1354 limits assumed): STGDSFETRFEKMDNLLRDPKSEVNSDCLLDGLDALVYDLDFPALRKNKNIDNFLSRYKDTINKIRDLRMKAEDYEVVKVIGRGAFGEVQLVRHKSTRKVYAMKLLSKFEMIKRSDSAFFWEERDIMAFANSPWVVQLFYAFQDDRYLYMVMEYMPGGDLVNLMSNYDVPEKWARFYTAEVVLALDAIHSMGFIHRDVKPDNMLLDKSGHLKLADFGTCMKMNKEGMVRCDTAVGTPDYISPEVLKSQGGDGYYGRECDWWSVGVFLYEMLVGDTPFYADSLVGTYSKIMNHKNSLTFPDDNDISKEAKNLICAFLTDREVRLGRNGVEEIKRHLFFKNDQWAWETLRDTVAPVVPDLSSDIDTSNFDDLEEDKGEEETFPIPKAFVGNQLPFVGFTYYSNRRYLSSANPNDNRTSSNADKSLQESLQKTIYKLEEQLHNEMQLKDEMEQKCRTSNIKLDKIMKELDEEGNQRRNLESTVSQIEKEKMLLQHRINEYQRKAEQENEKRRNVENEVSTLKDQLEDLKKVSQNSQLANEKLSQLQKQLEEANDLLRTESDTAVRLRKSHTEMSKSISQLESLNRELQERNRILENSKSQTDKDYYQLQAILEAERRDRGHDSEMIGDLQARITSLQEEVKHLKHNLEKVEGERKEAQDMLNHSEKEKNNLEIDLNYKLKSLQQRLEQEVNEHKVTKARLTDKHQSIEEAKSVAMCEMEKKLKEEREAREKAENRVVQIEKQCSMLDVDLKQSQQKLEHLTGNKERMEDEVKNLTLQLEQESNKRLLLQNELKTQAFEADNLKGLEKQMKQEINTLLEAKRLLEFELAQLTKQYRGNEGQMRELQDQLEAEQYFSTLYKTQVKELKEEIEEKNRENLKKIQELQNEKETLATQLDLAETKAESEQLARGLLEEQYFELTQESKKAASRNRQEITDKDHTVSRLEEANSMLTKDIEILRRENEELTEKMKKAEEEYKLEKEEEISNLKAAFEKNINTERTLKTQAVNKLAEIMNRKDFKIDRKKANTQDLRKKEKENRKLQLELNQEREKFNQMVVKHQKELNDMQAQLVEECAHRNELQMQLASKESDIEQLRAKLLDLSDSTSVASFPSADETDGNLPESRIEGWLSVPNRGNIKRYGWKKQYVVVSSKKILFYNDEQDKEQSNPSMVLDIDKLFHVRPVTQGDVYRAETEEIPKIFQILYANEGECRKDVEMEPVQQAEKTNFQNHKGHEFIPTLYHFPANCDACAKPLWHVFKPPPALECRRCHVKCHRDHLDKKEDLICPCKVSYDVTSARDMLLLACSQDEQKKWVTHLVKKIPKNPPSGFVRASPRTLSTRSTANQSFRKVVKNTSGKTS
Sequence of 5'-AMP-activated protein kinase catalytic subunit alpha-1 (Homo sapiens) (Q13131 whole entry, looked up): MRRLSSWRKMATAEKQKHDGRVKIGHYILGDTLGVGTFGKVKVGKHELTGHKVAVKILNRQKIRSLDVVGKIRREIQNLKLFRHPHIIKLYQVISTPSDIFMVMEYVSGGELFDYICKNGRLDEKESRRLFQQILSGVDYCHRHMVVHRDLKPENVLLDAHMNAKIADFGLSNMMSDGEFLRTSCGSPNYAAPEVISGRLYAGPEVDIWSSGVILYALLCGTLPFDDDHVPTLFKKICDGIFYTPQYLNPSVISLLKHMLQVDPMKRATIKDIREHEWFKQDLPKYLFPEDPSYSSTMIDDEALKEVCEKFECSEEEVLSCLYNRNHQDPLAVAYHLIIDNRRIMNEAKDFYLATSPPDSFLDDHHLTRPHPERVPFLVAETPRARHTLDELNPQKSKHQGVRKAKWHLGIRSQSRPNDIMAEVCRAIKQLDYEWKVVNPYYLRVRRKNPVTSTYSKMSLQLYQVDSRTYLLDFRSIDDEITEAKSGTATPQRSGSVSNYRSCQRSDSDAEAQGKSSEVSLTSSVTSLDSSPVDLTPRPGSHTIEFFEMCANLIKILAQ
Sequence of Receptor-type tyrosine-protein kinase FLT3 (Homo sapiens) (P36888 whole entry): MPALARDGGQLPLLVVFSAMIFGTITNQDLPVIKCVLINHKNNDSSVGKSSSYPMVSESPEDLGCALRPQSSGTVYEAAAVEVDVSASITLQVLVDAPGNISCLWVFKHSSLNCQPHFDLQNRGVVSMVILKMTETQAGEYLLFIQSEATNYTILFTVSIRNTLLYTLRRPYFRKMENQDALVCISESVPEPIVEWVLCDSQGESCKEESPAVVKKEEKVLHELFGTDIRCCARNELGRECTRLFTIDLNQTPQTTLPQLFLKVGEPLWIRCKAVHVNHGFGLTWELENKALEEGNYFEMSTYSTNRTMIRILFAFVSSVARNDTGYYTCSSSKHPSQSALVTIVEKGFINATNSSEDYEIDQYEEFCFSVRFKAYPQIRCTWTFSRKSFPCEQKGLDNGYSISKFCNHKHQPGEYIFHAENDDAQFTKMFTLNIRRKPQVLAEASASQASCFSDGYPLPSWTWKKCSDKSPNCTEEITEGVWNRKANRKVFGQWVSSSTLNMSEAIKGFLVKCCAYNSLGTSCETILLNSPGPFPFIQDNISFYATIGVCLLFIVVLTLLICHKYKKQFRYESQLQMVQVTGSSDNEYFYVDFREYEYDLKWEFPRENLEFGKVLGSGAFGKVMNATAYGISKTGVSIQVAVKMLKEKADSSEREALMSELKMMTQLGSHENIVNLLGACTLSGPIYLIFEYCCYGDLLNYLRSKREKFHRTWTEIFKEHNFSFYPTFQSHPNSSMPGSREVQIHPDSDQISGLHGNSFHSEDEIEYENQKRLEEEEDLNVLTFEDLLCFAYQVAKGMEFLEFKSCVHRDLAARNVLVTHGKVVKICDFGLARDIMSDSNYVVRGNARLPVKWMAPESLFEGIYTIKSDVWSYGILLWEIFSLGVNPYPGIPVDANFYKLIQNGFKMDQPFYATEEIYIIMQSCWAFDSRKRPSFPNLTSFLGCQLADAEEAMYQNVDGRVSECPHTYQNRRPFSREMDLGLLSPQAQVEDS
Sequence of Serine/threonine-protein kinase Nek2 (Homo sapiens) (P51955 whole entry): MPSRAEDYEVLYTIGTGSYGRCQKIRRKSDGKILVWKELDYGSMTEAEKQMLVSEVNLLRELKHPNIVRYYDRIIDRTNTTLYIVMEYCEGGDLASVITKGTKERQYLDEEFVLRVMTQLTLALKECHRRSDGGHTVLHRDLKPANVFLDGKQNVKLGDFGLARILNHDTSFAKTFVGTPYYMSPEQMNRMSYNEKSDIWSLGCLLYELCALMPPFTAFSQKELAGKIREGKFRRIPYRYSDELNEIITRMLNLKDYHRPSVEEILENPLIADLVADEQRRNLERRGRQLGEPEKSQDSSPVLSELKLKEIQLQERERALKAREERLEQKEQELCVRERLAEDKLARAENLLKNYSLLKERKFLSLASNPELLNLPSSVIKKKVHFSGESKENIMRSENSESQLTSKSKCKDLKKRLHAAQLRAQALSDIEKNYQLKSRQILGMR
Sequence of Vascular endothelial growth factor receptor 2 (Homo sapiens) (P35968 whole entry): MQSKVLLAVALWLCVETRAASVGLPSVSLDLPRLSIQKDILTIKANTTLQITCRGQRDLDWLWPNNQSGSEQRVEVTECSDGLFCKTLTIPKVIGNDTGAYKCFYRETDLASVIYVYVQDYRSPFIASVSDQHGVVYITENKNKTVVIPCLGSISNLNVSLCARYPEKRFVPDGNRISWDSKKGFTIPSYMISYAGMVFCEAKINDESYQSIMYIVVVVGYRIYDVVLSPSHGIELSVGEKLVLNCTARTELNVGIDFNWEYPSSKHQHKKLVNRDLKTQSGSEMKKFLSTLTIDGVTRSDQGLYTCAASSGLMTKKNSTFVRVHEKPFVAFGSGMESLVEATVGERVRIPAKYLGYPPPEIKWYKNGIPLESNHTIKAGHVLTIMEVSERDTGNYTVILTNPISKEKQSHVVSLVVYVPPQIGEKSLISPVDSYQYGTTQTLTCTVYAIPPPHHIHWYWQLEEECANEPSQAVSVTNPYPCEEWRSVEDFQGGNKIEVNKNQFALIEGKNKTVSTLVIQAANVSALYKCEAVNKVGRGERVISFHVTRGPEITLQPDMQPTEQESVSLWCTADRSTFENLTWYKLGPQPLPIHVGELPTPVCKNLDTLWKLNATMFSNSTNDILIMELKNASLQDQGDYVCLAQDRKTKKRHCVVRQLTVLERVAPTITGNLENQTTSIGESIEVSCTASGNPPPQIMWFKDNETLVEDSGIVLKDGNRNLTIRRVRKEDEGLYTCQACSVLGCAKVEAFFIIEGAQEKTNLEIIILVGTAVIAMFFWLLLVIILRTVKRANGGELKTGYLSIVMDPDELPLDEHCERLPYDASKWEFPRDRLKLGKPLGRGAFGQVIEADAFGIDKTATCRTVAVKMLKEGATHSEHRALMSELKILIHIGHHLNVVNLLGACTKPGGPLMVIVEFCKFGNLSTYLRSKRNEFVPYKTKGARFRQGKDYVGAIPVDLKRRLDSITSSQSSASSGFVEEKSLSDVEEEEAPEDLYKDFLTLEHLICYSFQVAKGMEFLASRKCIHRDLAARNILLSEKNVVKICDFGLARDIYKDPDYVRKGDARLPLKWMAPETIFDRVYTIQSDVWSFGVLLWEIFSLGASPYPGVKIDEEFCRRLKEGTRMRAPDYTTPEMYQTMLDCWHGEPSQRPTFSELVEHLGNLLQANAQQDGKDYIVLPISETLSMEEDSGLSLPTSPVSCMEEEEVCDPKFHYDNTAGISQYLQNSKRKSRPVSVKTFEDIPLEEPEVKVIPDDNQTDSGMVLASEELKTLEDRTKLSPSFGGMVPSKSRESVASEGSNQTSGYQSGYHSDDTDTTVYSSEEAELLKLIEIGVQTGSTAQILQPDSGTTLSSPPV
Sequence of Serine/threonine-protein kinase pim-1 (Homo sapiens) (P11309 whole entry, looked up): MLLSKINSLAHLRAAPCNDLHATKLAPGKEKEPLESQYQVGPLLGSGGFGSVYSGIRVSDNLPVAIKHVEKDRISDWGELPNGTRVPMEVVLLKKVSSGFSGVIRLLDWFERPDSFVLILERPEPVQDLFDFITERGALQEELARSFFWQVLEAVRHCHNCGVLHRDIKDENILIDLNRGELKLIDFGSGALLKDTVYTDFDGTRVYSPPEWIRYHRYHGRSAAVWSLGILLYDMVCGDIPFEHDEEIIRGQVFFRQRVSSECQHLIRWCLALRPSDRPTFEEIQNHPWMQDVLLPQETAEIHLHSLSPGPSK

Which results are given for `Cc1cc2c(-c3ccc(NC(=O)[C@H](N)CC(C)(C)C)cc3C)ccnc2[nH]1`?
activity [1]: 121%; activity [2]: 85%; activity [3]: 70%; activity [4]: 84%; activity [5]: 97%; activity [6]: 74%; activity [7]: 111%; activity [8]: 98%; activity [9]: 95%; activity [10]: 118%; activity [11]: 110%; activity [12]: 88%; activity [13]: 104%; activity [14]: 115%; activity [15]: 120%; activity [16]: 99%; activity [17]: 102%; activity [18]: 101%; activity [19]: 78%; activity [20]: 95%; activity [21]: 95%; activity [22]: 110%; activity [23]: 94%; activity [24]: 85%; activity [25]: 97%; activity [26]: 102%; activity [27]: 86%; activity [28]: 85%; activity [29]: 94%; activity [30]: 81%; activity [31]: 91%; activity [32]: 95%; activity [33]: 96%; activity [34]: 116%; activity [35]: 98%; activity [36]: 91%; activity [37]: 95%; activity [38]: 94%
